This passage reports IC50 results from patent publication US8324226B2, “Therapeutic oxy-phenyl-aryl compounds and their use” (Cancer Research Technology Limited, priority 2007, dated 2012).

As a reminder, the IC50 is the concentration that gives 50% inhibition.

The assay has as its target T1, CHK2 (Homo sapiens, UniProt O96017).
T1 construct: made in house
The assay is described as follows: CHK2 kinase activity assay (DELFIA, phosphorylation of a CDC25C peptide). To be noted: ATP 30 μM, CHK2 1 nM, read-out: IC50, inhibition of CHK2 kinase activity in vitro. Type of assay: biochemical.

Several values for one entry are separate records, joined by “and”; a condition that tells them apart may be missing. Equal entries are not always repeated. Where two headings read alike, the source gives them in different places. A value given as a limit tells only on which side of the number the result lay.

T1 sequence (O96017 whole entry): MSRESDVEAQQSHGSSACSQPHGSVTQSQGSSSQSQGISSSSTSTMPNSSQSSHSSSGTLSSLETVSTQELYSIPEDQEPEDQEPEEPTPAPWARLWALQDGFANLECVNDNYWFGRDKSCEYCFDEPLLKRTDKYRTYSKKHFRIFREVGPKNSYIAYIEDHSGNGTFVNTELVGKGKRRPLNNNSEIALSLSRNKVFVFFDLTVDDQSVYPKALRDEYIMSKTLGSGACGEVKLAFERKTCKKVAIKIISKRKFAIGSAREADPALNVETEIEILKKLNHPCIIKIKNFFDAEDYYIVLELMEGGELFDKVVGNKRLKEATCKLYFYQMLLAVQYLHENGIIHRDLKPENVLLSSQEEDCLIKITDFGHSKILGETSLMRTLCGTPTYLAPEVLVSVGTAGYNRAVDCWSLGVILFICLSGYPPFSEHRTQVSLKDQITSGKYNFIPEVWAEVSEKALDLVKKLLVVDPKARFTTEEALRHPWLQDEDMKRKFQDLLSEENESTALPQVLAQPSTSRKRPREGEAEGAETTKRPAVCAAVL

Regarding `COc1ccc([C@@H]2CNC[C@H]2Nc2nc(-c3cc(F)ccc3O)nc3ccccc23)cc1` (relative stereo) [Compound A-090, 4-Fluoro-2-(4-(trans-4-(4-methoxyphenyl)pyrrolidin-3-ylamino)quinazolin-2-yl)phenol], where the note is “following further studies”, the IC50 was no more than 0.3 µM. Same read-out and setting: for `Oc1ccc(-c2cccc(F)c2)cc1-c1nc(N[C@H]2CCNC2)c2ccccc2n1` [Compound A-107, (S)-3′-Fluoro-3-(4-(pyrrolidin-3-ylamino)quinazolin-2-yl)biphenyl-4-ol] the value was 0.3 to 3 µM; for `OCC#Cc1ccc2c(N[C@H]3CCNC3)nc(-c3cc(F)ccc3O)nc2c1` [Compound A-072, (S)-4-Fluoro-2-(7-(3-hydroxyprop-1-ynyl)-4-(pyrrolidin-3-ylamino)quinazolin-2-yl)phenol], no more than 0.3 µM.

Consider `Oc1ccccc1-c1nccc(N[C@H]2CCNC2)n1` [Compound D-002], for which the half-maximal inhibitory concentration (IC50) was 3 to 30 µM (first set of tested compounds); 3 to 30 µM and 8.2 µM (following further studies). For `Oc1ccc(Cl)cc1-c1nc(N[C@@H]2CNC[C@H]2c2ccccc2)c2ccccc2n1` (relative stereo) [Compound A-063, 4-Chloro-2-(4-(trans-4-phenylpyrrolidin-3-ylamino)quinazolin-2-yl)phenol], the half-inhibitory concentration (IC50) (following further studies) lay in the range of 0.3 to 3 µM. Take `COC(=O)[C@H]1C[C@H](Nc2nc(-c3cc(Cl)ccc3O)nc3ccccc23)CN1` [Compound A-026, (2R,4S)-Methyl 4-(2-(5-chloro-2-hydroxyphenyl)quinazolin-4-ylamino)pyrrolidine-2-carboxylate]: the IC50 is less than 3 µM (first set of tested compounds) and no more than 0.3 µM (following further studies). For `CN1CCN(C(=O)[C@H]2C[C@H](Nc3nc(-c4ccccc4O)nc4ccccc34)CN2)CC1` [Compound A-036, ((2R,4S)-4-(2-(2-Hydroxyphenyl)quinazolin-4-ylamino)pyrrolidin-2-yl)(4-methylpiperazin-1-yl)methanone], in that order: less than 3 µM and 0.3 to 3 µM. Regarding `COCCOc1ccc2nc(-c3cc(F)ccc3O)nc(N[C@H]3CCNC3)c2c1` [Compound A-095, (S)-4-Fluoro-2-(6-(2-methoxyethoxy)-4-(pyrrolidin-3-ylamino)quinazolin-2-yl)phenol], where the note is “following further studies”, the IC50 was no more than 0.3 µM. For the compound `Oc1ccc(F)cc1-c1nc(N[C@@H]2CNC[C@H]2c2cccc(Cl)c2)c2ccccc2n1` (relative stereo) [Compound A-083], under “following further studies”, the IC50 fell in the range of 0.3 to 3 µM. In the case of `CN1CCC[C@H](Nc2nc(-c3ccccc3O)nc3ccccc23)C1` [Compound A-007, 2-[4-((S)-1-Methylpiperidin-3-ylamino)-quinazolin-2-yl]-phenol], the 50% inhibitory concentration (IC50) is 3 to 30 µM (first set of tested compounds) and 3 to 30 µM (following further studies). Turning to `CC(C)N(C)C(=O)[C@H]1C[C@H](Nc2nc(-c3ccccc3O)nc3ccccc23)CN1` [Compound A-048, (2R,4S)-4-(2-(2-Hydroxyphenyl)quinazolin-4-ylamino)-N-isopropyl-N-methylpyrrolidine-2-carboxamide], the IC50 (first set of tested compounds) is less than 3 µM and the IC50 (following further studies) is no more than 0.3 µM.

Consider `COCCOc1cc2nc(-c3cc(F)ccc3O)nc(N[C@H]3CCNC3)c2cc1OCCOC` [Compound A-104, (S)-2-(6,7-bis(2-Methoxyethoxy)-4-(pyrrolidin-3-ylamino)quinazolin-2-yl)-4-fluorophenol], for which the IC50 (following further studies) was no more than 0.3 µM. As to `Oc1ccccc1-c1nc(N[C@H]2CCNC2)c2cc(-c3ccccc3)ccc2n1` [Compound A-025, (S)-2-(6-Phenyl-4-(pyrrolidinyl-3-ylamino)quinazolin-2-yl)phenol], the IC50 runs as follows: (first set of tested compounds) 3 to 30 µM; (following further studies) 3 to 30 µM.

For `Oc1ccccc1-c1nc(N[C@H]2CCNC2)c2cc(Br)ccc2n1` [Compound A-016, (S)-2-(6-Bromo-4-(pyrrolidin-3-ylamino)quinazolin-2-yl)phenol], the concentration for half-maximal inhibition (IC50) reads like this: (first set of tested compounds) less than 3 µM; (following further studies) 0.3 to 3 µM. For `Cn1cc(-c2ccc3c(N[C@H]4CCNC4)nc(-c4ccccc4O)nc3c2)cn1` [Compound A-066, (S)-2-(7-(1-Methyl-1H-pyrazol-4-yl)-4-(pyrrolidin-3-ylamino)quinazolin-2-yl)phenol], the IC50 (following further studies) was no more than 0.3 µM. On to `Oc1ccccc1-c1nc(N[C@H]2CCNC2)c2cc(-c3ccc(CN4CCOCC4)cc3)ccc2n1` [Compound A-028, (S)-2-(6-(4-(Morpholinomethyl)phenyl)-4-(pyrrolidin-3-ylamino)quinazolin-2-yl)phenol], for which the IC50 (first set of tested compounds) was less than 3 µM and the IC50 (following further studies) is 0.3 to 3 µM.

As for `Oc1ccc(F)cc1-c1nc(NC2CCCNCC2)c2ccccc2n1` (stereo not drawn) [Compound A-060, 2-(4-(Azepan-4-ylamino)quinazolin-2-yl)-4-fluorophenol], the concentration for half-maximal inhibition (IC50) (following further studies) is no more than 0.3 µM. The same measure, in the same setting: for `CC(C)(O)CCc1ccc2nc(-c3cc(F)ccc3O)nc(N[C@H]3CCNC3)c2c1` [Compound A-102, (S)-4-Fluoro-2-(6-(3-hydroxy-3-methylbutyl)-4-(pyrrolidin-3-ylamino)quinazolin-2-yl)phenol] the value was no more than 0.3 µM. Take `CC(C)(C)c1ccc(O)c(-c2nc(N[C@H]3CCNC3)c3ccccc3n2)c1` [Compound A-022, (S)-4-tert-Butyl-2-(4-(pyrrolidin-3-ylamino)quinazolin-2-yl)phenol]: the IC50 is 3 to 30 µM (first set of tested compounds) and 3 to 30 µM (following further studies).

For `O=C([C@H]1C[C@H](Nc2nc(-c3ccccc3O)nc3ccccc23)CN1)N1CCC1` [Compound A-049, Azetidin-1-yl((2R,4S)-4-(2-(2-hydroxyphenyl)quinazolin-4-ylamino)pyrrolidin-2-yl)methanone], the IC50 reads like this: (first set of tested compounds) less than 3 µM; (following further studies) 0.3 to 3 µM. Taken in the same sequence, the figures for `CN1CCC(Nc2nc(-c3ccccc3O)nc3ccccc23)CC1` [Compound A-003, 2-[4-(1-Methylpiperidin-4-ylamino)-quinazolin-2-yl]-phenol] were less than 3 µM and 0.3 to 3 µM. For `COc1cccc([C@@H]2CNC[C@H]2Nc2nc(-c3cc(F)ccc3O)nc3ccccc23)c1` (relative stereo) [Compound A-091, 4-Fluoro-2-(4-(trans-4-(3-methoxyphenyl)pyrrolidin-3-ylamino)quinazolin-2-yl)phenol], the half-maximal inhibitory concentration (IC50) (following further studies) was no more than 0.3 µM. For the compound `CNC(=O)[C@H]1C[C@H](Nc2nc(-c3ccccc3O)nc3ccccc23)CN1` [Compound A-032, (2R,4S)-4-(2-(2-Hydroxyphenyl)quinazolin-4-ylamino)-N-methylpyrrolidine-2-carboxamide], the IC50 runs as follows: (first set of tested compounds) less than 3 µM; (following further studies) 0.3 to 3 µM.

With `Oc1ccc(F)cc1-c1nc(N[C@H]2CCNC2)c2ccc(F)cc2n1` [Compound A-114, (S)-4-Fluoro-2-(7-fluoro-4-(pyrrolidin-3-ylamino)quinazolin-2-yl)phenol], the IC50 (following further studies) is no more than 0.3 µM. The same measure, in the same setting: for `Oc1ccc(F)cc1-c1nc(NC2CCCCNC2)c2ccccc2n1` (stereo not drawn) [Compound A-059, 2-(4-(Azepan-3-ylamino)quinazolin-2-yl)-4-fluorophenol] the value was no more than 0.3 µM. Still for that read-out and setting: for `C[C@@H]1CNC[C@H]1Nc1nc(-c2cc(F)ccc2O)nc2ccccc12` (relative stereo) [Compound A-099, 4-Fluoro-2-(4-(trans-4-methylpyrrolidin-3-ylamino)quinazolin-2-yl)phenol] the value was no more than 0.3 µM.

Regarding `CCNC(=O)[C@H]1C[C@H](Nc2nc(-c3ccccc3O)nc3ccccc23)CN1` [Compound A-051, (2R,4S)-N-Ethyl-4-(2-(2-hydroxyphenyl)quinazolin-4-ylamino)pyrrolidine-2-carboxamide], the IC50 runs as follows: (first set of tested compounds) less than 3 µM; (following further studies) 0.3 to 3 µM. Consider `CC(C)(O)C#Cc1ccc2nc(-c3cc(F)ccc3O)nc(N[C@H]3CCNC3)c2c1` [Compound A-109, (S)-4-Fluoro-2-(6-(3-hydroxy-3-methylbut-1-ynyl)-4-(pyrrolidin-3-ylamino)quinazolin-2-yl)phenol], for which the IC50 (following further studies) is 0.3 to 3 µM. In the case of `O=C([C@H]1C[C@H](Nc2nc(-c3ccccc3O)nc3ccccc23)CN1)N1CCCCC1` [Compound A-037, ((2R,4S)-4-(2-(2-Hydroxyphenyl)quinazolin-4-ylamino)pyrrolidin-2-yl)(piperidin-1-yl)methanone], the IC50 was less than 3 µM (first set of tested compounds) and no more than 0.3 µM (following further studies). As to `O=C(O)C1(Nc2nc(-c3cc(Cl)ccc3O)nc3ccccc23)CCNC1` (stereo not drawn) [Compound A-064, 3-(2-(5-Chloro-2-hydroxyphenyl)quinazolin-4-ylamino)pyrrolidine-3-carboxylic acid], the IC50 (following further studies) lay within 3 to 30 µM. Still for that read-out and setting: for `COCCOc1cc2c(N[C@H]3CCNC3)nc(-c3cc(F)ccc3O)nc2cc1OC` [Compound A-103, (S)-4-Fluoro-2-(7-methoxy-6-(2-methoxyethoxy)-4-(pyrrolidin-3-ylamino)quinazolin-2-yl)phenol] the value was no more than 0.3 µM; for `COc1ccc2nc(-c3cc(F)ccc3O)nc(N[C@H]3CCNC3)c2c1` [Compound A-073, (S)-4-Fluoro-2-(6-methoxy-4-(pyrrolidin-3-ylamino)quinazolin-2-yl)phenol], no more than 0.3 µM. As to `Oc1ccccc1-c1nc(N[C@H]2CCNC2)c2ccc(Cl)cc2n1` [Compound A-062, (S)-2-(7-Chloro-4-(pyrrolidin-3-ylamino)quinazolin-2-yl)phenol], under “following further studies”, the half-maximal inhibitory concentration (IC50) is no more than 0.3 µM. For the compound `NC1CCC(Nc2nc(-c3ccccc3O)nc3ccccc23)CC1` (stereo not drawn) [Compound B-001, 2-[4-(4-Aminocyclohexylamino)-quinazolin-2-yl]-phenol], the concentration for half-maximal inhibition (IC50) reads like this: (first set of tested compounds) 3 to 30 µM; (following further studies) 3 to 30 µM. For the compound `COc1ccc2c(N[C@H]3CCNC3)nc(-c3cc(F)ccc3O)nc2c1` [Compound A-074, (S)-4-Fluoro-2-(7-methoxy-4-(pyrrolidin-3-ylamino)quinazolin-2-yl)phenol], under “following further studies”, the IC50 is no more than 0.3 µM. Consider `CN(C)C(=O)[C@H]1C[C@H](Nc2nc(-c3cc(F)ccc3O)nc3ccccc23)CN1` [Compound A-046, (2R,4S)-4-(2-(5-Fluoro-2-hydroxyphenyl)quinazolin-4-ylamino)-N,N-dimethylpyrrolidine-2-carboxamide], for which the half-maximal inhibitory concentration (IC50) by setting is: (first set of tested compounds) less than 3 µM; (following further studies) no more than 0.3 µM. For `Oc1ccccc1-c1nc(N[C@H]2CCNC2)c2ccc(-c3ccccc3)cc2n1` [Compound A-020, (S)-2-(7-phenyl-4-(pyrrolidinyl-3-ylamino)quinazolin-2-yl)phenol], in that order: less than 3 µM and 0.3 to 3 µM.
